Data set [1] in a line: Solubility by visual inspection of peptide solutions. Type of data set: physicochemical. In outline: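 Solubility scored by eye: clear, colorless appearance after gentle mixing. Samples prepared at 1, 5, 7.5 or 15 mg/ml in either pH 7.4 water (NaOH-adjusted) or 50 mM sodium phosphate buffer, pH 7.4.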
The target of the next data set is T1, human GIP receptor (Homo sapiens, UniProt P48546).
T1 construct: host or cells: HEK-293 cells, transient transfection (Lipofectamine 2000), cDNA in pCMV-Script vector
T1 sequence (P48546 22-466): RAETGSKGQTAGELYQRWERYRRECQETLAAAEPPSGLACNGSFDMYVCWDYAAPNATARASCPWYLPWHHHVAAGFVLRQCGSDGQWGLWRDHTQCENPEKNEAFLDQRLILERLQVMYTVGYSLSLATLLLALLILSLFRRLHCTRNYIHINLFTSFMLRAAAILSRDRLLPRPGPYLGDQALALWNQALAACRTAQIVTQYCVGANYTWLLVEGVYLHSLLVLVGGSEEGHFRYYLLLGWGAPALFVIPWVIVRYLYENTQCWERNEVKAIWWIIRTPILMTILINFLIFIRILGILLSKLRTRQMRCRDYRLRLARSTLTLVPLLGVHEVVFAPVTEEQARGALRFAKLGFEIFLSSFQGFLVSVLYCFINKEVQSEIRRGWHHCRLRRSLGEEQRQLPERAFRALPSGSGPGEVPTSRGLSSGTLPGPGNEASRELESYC
Kind of data set: cAMP assay Alternative 2 (Gaddum assay), antagonist potency pKb. Type of data set: cell-based. The procedure:
HEK293 cells were cultured in 10% CO2 and 37° C. in Dulbecco's modified Eagle's medium supplemented with 10% fetal bovine serum, 2 mM glutamine, 180 units/ml penicillin, and 45 µg/ml streptomycin. Transient transfection with hGIPR for the CisBio assay from Table 2C was performed by using Lipofectamine 2000.
Antagonist potency (pKb) was estimated in a functional setting. The estimated pKb values were calculated from the shifts of the agonist-concentration-response curves in the presence of a single dose of GIP peptide antagonists using the Gaddum equation: pKb=log(DR-1)-log(B), where DR (EC50′/EC50) is the dose ratio calculated from EC50 of GIP1-42 obtained in the presence and absence (EC50) of antagonist, and B is the antagonist concentration used.
The in vitro functional assessment of compounds towards human GIP receptor was determined in HEK-293 cells transiently expressing the receptor. On the day of the assay, cells were resuspended in HBSS buffer (Gibco, 14025-50) supplemented with […] (Gibco, 15630-106), 0.1% Pluronic F-68 (Gibco, 24040-032) and 0.1% casein (Sigma, C4765), and plated in 384-well plates at a density of 3500 cells/well. The GIP peptide analogues of the present disclosure were diluted in HBSS buffer supplemented with 20 mM HEPES, 0.1% pluronic, 0.1% casein and 500 uM IBMX. […] Increasing dose of agonist (GIP1-42) was subsequently added to cells and incubated for additionally 30 min at 37° C. The intracellular cAMP was quantitatively determined using the CisBio cAMP Dynamic 2 HTRF Assay Kit. The assay is based on a competition between native cAMP produced by cells and cAMP labeled with the dye d2 for binding to a cryptate labeled antibody. The specific signal (i.e. energy transfer signal) is inversely proportional to the concentration of cAMP in the sample.
The cAMP-d2 conjugate and the antibody anti-cAMP-Cryptate, both diluted in lysis buffer provided in the kit, were added to the cells according to the manufacturer's protocol. The resulting competitive assay was incubated for 60 minutes at room temperature, and the signal was detected by using a PerkinElmer Envision® instrument with excitation at 320 nm and emission at 665 nm and 620 nm. The HTRF ratio (emission at 665 nm/620 nm*10,000) is inversely proportional to the amount of cAMP present and is converted to nM cAMP per well using a cAMP standard curve.
(Changes in cAMP serve as a functional read-out for many G protein-coupled receptors.)

The nature of data set [2]: Physical stability: fibril formation in Thioflavin T (ThT) assay with agitation. Format: physicochemical. The settings on record: 25° C., agitation. In outline:
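Read-out is continuous ThT fluorescence at 486 nm, with lag time taken where signal reaches 10% between pre- and post-transition baselines. Filtered samples (1, 5, 7.5 or 15 mg/ml; pH 7.4 phosphate buffer or NaOH-adjusted water) were stressed at 25° C. by orbital rotation at 300 rpm with one silica bead per well.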

[3] abbreviates: Table 2C, Gaddum equation, single antagonist dose, HEK-293 hGIPR, read-out: nM (Kb).

Consider four compounds from patent US20230416330A1, “Optimized GIP Peptide Analogues” (Antag Therapeutics ApS, priority 2019, published 2023).

Where two headings read alike, the source gives them in different places. Starred links: 1 amine or outer side, 2 acyl side, 3 side chain; linkers in the order of their positions; H or OH if unused. Non-standard residues stand in square brackets, D forms with d. Residues, ends and D or L forms follow the SMILES beside them. Groups on a side chain read outwards from the residue. *: point of attachment. C18 diacid = O=C(O)CCCCCCCCCCCCCCCCC(=O)*; C16 diacid = O=C(O)CCCCCCCCCCCCCCC(=O)*; γGlu = O=C(O)[C@H](CCC(=O)[*:2])N[*:1]; Glutaryl = O=C(CCCC(=O)[*:2])[*:1]; AEEA = NCCOCCOCC(=O)O; Aib = CC(C)(N)C(=O)O

In the case of `CC[C@H](C)[C@H](NC(=O)[C@H](CCCCN)NC(=O)[C@H](CC(=O)O)NC(=O)[C@H](CCSC)NC(=O)[C@H](C)NC(=O)[C@H](CCCCNC(=O)CCCCCCCCCCCCCCC(=O)O)NC(=O)[C@H](CO)NC(=O)[C@H](Cc1ccc(O)cc1)NC(=O)[C@H](CC(=O)O)NC(=O)[C@H](CO)NC(=O)[C@@H](NC(=O)[C@H](Cc1ccccc1)NC(=O)[C@@H](NC(=O)CNC(=O)[C@@H](N)CCC(=O)O)[C@@H](C)O)[C@@H](C)CC)C(=O)N[C@@H](Cc1c[nH]cn1)C(=O)N[C@@H](CCC(N)=O)C(=O)N[C@@H](CCC(N)=O)C(=O)N[C@@H](CC(=O)O)C(=O)N[C@@H](Cc1ccccc1)C(=O)N[C@H](C(=O)N[C@@H](CCC(=O)O)C(=O)N[C@@H](Cc1c[nH]c2ccccc12)C(=O)N[C@@H](CC(C)C)C(=O)N[C@@H](CC(C)C)C(=O)N[C@@H](C)C(=O)N[C@@H](CCC(N)=O)C(=O)N[C@@H](CCCCN)C(=O)N1CCC[C@H]1C(=O)N[C@@H](CO)C(=O)N[C@@H](CO)C(=O)NCC(=O)N[C@@H](C)C(=O)N1CCC[C@H]1C(=O)N1CCC[C@H]1C(=O)N1CCC[C@H]1C(=O)N[C@@H](CO)C(=O)O)C(C)C` [AT739] (H-EGTFISDYSK(C16 diacid)AMDKIHQQDFVEWLLAQKPSSGAPPPS-OH; N-terminus assumed), the Visual appearance entry in data set [1] (1 mg/ml, TFA, Phosphate (7.4)) is “Clear”. For the same compound, the Kb (commonly the affinity of an antagonist, worked out from how it opposes an agonist) at human GIP receptor stood at 11 nM. Further, the “Avr lag time (h)” value in data set [2] (1 mg/ml, TFA, Phosphate (7.4)) is listed as “fnd (Fnd = fibrils not detected within experiment time (96 hours) with agitation.)”.

Take `CC[C@H](C)[C@H](NC(=O)[C@H](CCCCN)NC(=O)[C@H](CCC(=O)O)NC(=O)[C@H](CC(C)C)NC(=O)C(C)(C)NC(=O)[C@@H](NC(=O)[C@H](CO)NC(=O)[C@H](Cc1ccc(O)cc1)NC(=O)[C@H](CCC(=O)O)NC(=O)[C@H](CO)NC(=O)[C@@H](NC(=O)[C@H](Cc1ccccc1)NC(=O)[C@@H](NC(=O)CNC(=O)[C@@H](N)CCC(=O)O)[C@@H](C)O)[C@@H](C)CC)[C@@H](C)CC)C(=O)N[C@@H](CCCCNC(=O)COCCOCCNC(=O)COCCOCCNC(=O)CC[C@H](NC(=O)CCCCCCCCCCCCCCCCC(=O)O)C(=O)O)C(=O)N[C@@H](CCC(N)=O)C(=O)N[C@@H](CCC(N)=O)C(=O)N[C@@H](CC(=O)O)C(=O)N[C@@H](Cc1ccccc1)C(=O)N[C@H](C(=O)N[C@@H](CCC(=O)O)C(=O)N[C@@H](Cc1c[nH]c2ccccc12)C(=O)N[C@@H](CC(C)C)C(=O)N[C@@H](CC(C)C)C(=O)N[C@@H](C)C(=O)N[C@@H](CCC(N)=O)C(=O)N[C@@H](CCCCN)C(=O)N1CCC[C@H]1C(=O)N[C@@H](CO)C(=O)N[C@@H](CO)C(=O)NCC(=O)N[C@@H](C)C(=O)N1CCC[C@H]1C(=O)N1CCC[C@H]1C(=O)N1CCC[C@H]1C(=O)N[C@@H](CO)C(=O)O)C(C)C` [AT754] (H-EGTFISEYSI[Aib]LEKIK([AEEA-AEEA-γGlu-C18 diacid])QQDFVEWLLAQKPSSGAPPPS-OH; N-terminus assumed): the Visual appearance entry in data set [1] (1 mg/ml, TFA, Phosphate (7.4)) is given as “Clear”. In addition, the antagonist equilibrium constant (Kb) at human GIP receptor (setting [3]) was determined as 2.2 nM. Further, the “Avr lag time (h)” value in data set [2] (1 mg/ml, TFA, Phosphate (7.4)) was “fnd (Fnd = fibrils not detected within experiment time (96 hours) with agitation.)”.

`CC[C@H](C)[C@H](NC(=O)[C@H](CCCCN)NC(=O)[C@H](CCC(=O)O)NC(=O)[C@H](CC(C)C)NC(=O)C(C)(C)NC(=O)[C@@H](NC(=O)[C@H](CO)NC(=O)[C@H](Cc1ccc(O)cc1)NC(=O)[C@H](CCC(=O)O)NC(=O)[C@H](CO)NC(=O)[C@@H](NC(=O)[C@H](Cc1ccccc1)NC(=O)[C@@H](NC(=O)CNC(=O)CCCC(=O)O)[C@@H](C)O)[C@@H](C)CC)[C@@H](C)CC)C(=O)N[C@@H](CCCCNC(=O)COCCOCCNC(=O)COCCOCCNC(=O)CC[C@H](NC(=O)CCCCCCCCCCCCCCCCC(=O)O)C(=O)O)C(=O)N[C@@H](CCC(N)=O)C(=O)N[C@@H](CCC(N)=O)C(=O)N[C@@H](CCC(=O)O)C(=O)N[C@@H](Cc1ccccc1)C(=O)N[C@H](C(=O)N[C@@H](CCC(=O)O)C(=O)N[C@@H](Cc1c[nH]c2ccccc12)C(=O)N[C@@H](CC(C)C)C(=O)N[C@@H](CC(C)C)C(=O)N[C@@H](C)C(=O)N[C@@H](CCC(N)=O)C(=O)N[C@@H](CCCCN)C(=O)N1CCC[C@H]1C(=O)N[C@@H](CO)C(=O)N[C@@H](CO)C(=O)NCC(=O)N[C@@H](C)C(=O)N1CCC[C@H]1C(=O)N1CCC[C@H]1C(=O)N1CCC[C@H]1C(=O)N[C@@H](CO)C(N)=O)C(C)C` [AT713] (Glutaryl-GTFISEYSI[Aib]LEKIK([AEEA-AEEA-γGlu-C18 diacid])QQEFVEWLLAQKPSSGAPPPS-NH2): the Visual appearance result in data set [1] (1 mg/ml, TFA, Phosphate (7.4)) was “Clear”; in data set [1] (7.5 mg/ml, Na, MilliQ (8)), “Clear”; in data set [1] (15 mg/ml, Na, MilliQ (8)) it was “Clear”. The Kb on human GIP receptor (setting [3]) was 0.31 nM. Moreover, the “Avr lag time (h)” value in data set [2] (1 mg/ml, TFA, Phosphate (7.4)) was “fnd (Fnd = fibrils not detected within experiment time (96 hours) with agitation.)”; in data set [2] (7.5 mg/ml, Na, MilliQ (8)), “fnd (Fnd = fibrils not detected within experiment time (96 hours) with agitation.)”; in data set [2] (15 mg/ml, Na, MilliQ (8)), “fnd (Fnd = fibrils not detected within experiment time (96 hours) with agitation.)”.

`CC[C@H](C)[C@H](NC(=O)[C@H](CCCCN)NC(=O)[C@H](CCC(=O)O)NC(=O)[C@H](CC(C)C)NC(=O)C(C)(C)NC(=O)[C@@H](NC(=O)[C@H](CO)NC(=O)[C@H](Cc1ccc(O)cc1)NC(=O)[C@H](CCC(=O)O)NC(=O)[C@H](CO)NC(=O)[C@@H](NC(=O)[C@H](Cc1ccccc1)NC(=O)[C@@H](NC(=O)CNC(=O)CCCC(=O)O)[C@@H](C)O)[C@@H](C)CC)[C@@H](C)CC)C(=O)N[C@@H](CCCCNC(=O)COCCOCCNC(=O)COCCOCCNC(=O)CC[C@H](NC(=O)CCCCCCCCCCCCCCCCC(=O)O)C(=O)O)C(=O)N[C@@H](CCC(N)=O)C(=O)N[C@@H](CCC(N)=O)C(=O)N[C@@H](CCC(=O)O)C(=O)N[C@@H](Cc1ccccc1)C(=O)N[C@H](C(=O)N[C@@H](CCC(=O)O)C(=O)N[C@@H](Cc1c[nH]c2ccccc12)C(=O)N[C@@H](CC(C)C)C(=O)N[C@@H](CC(C)C)C(=O)N[C@@H](C)C(=O)N[C@@H](CCC(N)=O)C(=O)N[C@@H](CCCCN)C(=O)N1CCC[C@H]1C(=O)N[C@@H](CO)C(=O)N[C@@H](CO)C(=O)NCC(=O)N[C@@H](C)C(=O)N1CCC[C@H]1C(=O)N1CCC[C@H]1C(=O)N1CCC[C@H]1C(=O)N[C@@H](CO)C(=O)O)C(C)C` [AT705] (Glutaryl-GTFISEYSI[Aib]LEKIK([AEEA-AEEA-γGlu-C18 diacid])QQEFVEWLLAQKPSSGAPPPS-OH): the Visual appearance result in data set [1] (1 mg/ml, TFA, Phosphate (7.4)) is reported as “Clear”. In addition, on human GIP receptor (setting [3]), the antagonist equilibrium constant (Kb) is 0.23 nM. Further, in data set [2] (1 mg/ml, TFA, Phosphate (7.4)), the “Avr lag time (h)” value is recorded as “fnd (Fnd = fibrils not detected within experiment time (96 hours) with agitation.)”.
